Laboratory results taken from US20180163178A1, “AUF1 ENCODING COMPOSITIONS FOR MUSCLE CELL UPTAKE, SATELLITE CELL POPULATIONS, AND SATELLITE CELL MEDIATED MUSCLE GENERATION” (priority 2015, published 2018).

Columns and labels:
[1] = target: MMP9 (Mus musculus, UniProt P41245); details: auf1 KO mice
Method: (§1) Male and female mice 4-6 months of age were injected by 20 uL 1.2% BaCl2 in saline directly to the left TA muscle. Right TA muscle was left uninjured. Mice were monitored and sacrificed by protocol for 1-30 days post-injection. 2 mice per genotype per time point were studied.
Data were analyzed with an unpaired t-test.
(§2) KO male and female mice 4 months of age were given an IP injection with 25 mg/kg SB-3CT (Sigma-Aldrich) every 24 h, starting 24 h prior to BaCl2 injury with MMPSense injection. Three mice per treatment were analyzed, then means and standard deviations calculated. Data were analyzed with an unpaired t-test.

[2] = system: PAX7+ satellite cell population
Method: as §1
Male and female mice 4-6 months of age had their TA removed and preserved in OCT. Skeletal muscle samples were prepared as previously described (Bernet et al., “p38 MAPK Signaling Underlies a Cell-autonomous Loss of Stem Cell Self-renewal in Skeletal Muscle of Aged Mice,” Nature Medicine 20:265-271 (2014), which is hereby incorporated by reference in its entirety). Samples were post-fixed in 4% paraformaldehyde and blocked in 3% BSA in TBS-T. Primary antibodies were incubated at 4° C. overnight. Alexa Fluor donkey 488, 555, and 647 secondary antibodies were used at 1:500 and incubated for 1 hour at room temperature. Slides were sealed with Vectashield with DAPI. The following antibody dilutions were used: rat antibody to Laminin (Sigma, L0663, 1:250), mouse antibody to PAX7 (Santa Cruz Biotechnology, SC-81648, 1:500), goat antibody to hnRNPD (Santa Cruz Biotechnology, SC-22368, 1:250).
Images were acquired using a Zeiss LSM 700 confocal microscope, primarily with the 20× lens. Images were processed and scored using ImageJ64. If needed, color balance was adjusted linearly for the entire image and all images in experimental set. All images were quantified based on field of view. At least 5 images per experimental animal and at least 2 animals per genotype were used for all experiments.
as §2

Chain of MMP9 (P41245 108-730): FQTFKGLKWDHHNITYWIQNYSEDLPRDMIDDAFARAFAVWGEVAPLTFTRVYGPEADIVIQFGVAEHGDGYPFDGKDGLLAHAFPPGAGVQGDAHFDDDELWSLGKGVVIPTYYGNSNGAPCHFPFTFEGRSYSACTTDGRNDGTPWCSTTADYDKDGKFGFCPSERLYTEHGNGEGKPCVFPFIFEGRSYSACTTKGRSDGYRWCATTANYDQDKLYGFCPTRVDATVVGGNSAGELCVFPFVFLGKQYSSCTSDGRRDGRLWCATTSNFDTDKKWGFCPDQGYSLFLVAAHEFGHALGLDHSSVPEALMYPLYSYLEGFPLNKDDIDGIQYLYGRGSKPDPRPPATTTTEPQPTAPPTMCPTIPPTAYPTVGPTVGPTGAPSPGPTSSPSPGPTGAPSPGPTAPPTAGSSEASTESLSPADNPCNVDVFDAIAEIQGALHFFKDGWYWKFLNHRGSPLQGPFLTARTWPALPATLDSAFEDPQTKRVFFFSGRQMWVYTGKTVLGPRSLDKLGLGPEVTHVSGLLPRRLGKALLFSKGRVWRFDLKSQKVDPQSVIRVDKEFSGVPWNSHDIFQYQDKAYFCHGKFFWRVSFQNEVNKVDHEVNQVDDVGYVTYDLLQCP

O=S(=O)(CC1CS1)c1ccc(Oc2ccccc2)cc1 (centres unmarked) [SB-3CT]
reduction in MMP9 activity (bioluminescence analysis, FIG. 11B) ([1]; SB-3CT IP daily from 24 h prior to BaCl2 TA injury, injured TA 24 h post-injury, vs untreated KO): > 5 fold | MMP9 activity at the site of IP injection (FIG. 11A) ([1]; SB-3CT IP daily, IVIS imaging): near complete extinction of MMP9 activity | MMP9 activity in the injured TA muscle (FIG. 11A) ([1]; SB-3CT IP daily, IVIS imaging 24 h after injury): significantly reduced MMP9 activity | expansion of the PAX7+ satellite cell population (FIG. 11C) ([2]; SB-3CT treated auf1 KO mice, 7 days post-injury): significant increased expansion | increase in the PAX7+ satellite cell population (FIG. 11D) ([2]; auf1 KO mice, SB-3CT treatment, 7 days post-injury, vs untreated KO): ~4 fold | muscle wound repair ([2]; injured auf1 KO mice, SB-3CT treatment): restoration of muscle wound repair | muscle fiber morphology (FIG. 11C) ([2]; injured, SB-3CT treated auf1 KO mice): near-normal muscle fibers were evident | Laminin expression (FIG. 11C) ([2]; injured, SB-3CT treated auf1 KO mice, 7 days post-injury): strongly increased
